In PubChem BioAssay (NCI):
“And” between values parts separate entries of the source, which are not always exact repeats. Identical values can stand only once.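 Assay format: 96-well plates, 48-hour exposure. Abbreviation: GI50, concentration required for 50% inhibition of growth. TGI denotes the concentration required for complete inhibition of growth.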

Tests used:
Test in all cases: growth of human tumour cells (NCI), 48 h
HCT-15 colon = test system: HCT-15 colon
U251 CNS = test system: U251 CNS
SF-268 CNS = test system: SF-268 CNS
T-47D breast = test system: T-47D breast
SK-MEL-2 melanoma = test system: SK-MEL-2 melanoma
M14 melanoma = test system: M14 melanoma
MDA-MB-435 = test system: MDA-MB-435
OVCAR-8 ovarian = test system: OVCAR-8 ovarian
MDA-MB-231 breast = test system: MDA-MB-231 breast
OVCAR-4 ovarian = test system: OVCAR-4 ovarian

Row | Compound | GI50 (HCT-15 colon) [µM] | TGI (HCT-15 colon) | GI50 (U251 CNS) [µM] | TGI (U251 CNS) | GI50 (SF-268 CNS) [µM] | TGI (SF-268 CNS) | GI50 (T-47D breast) [µM] | TGI (T-47D breast) [µM] | GI50 (SK-MEL-2 melanoma) [µM] | TGI (SK-MEL-2 melanoma) [µM] | GI50 (M14 melanoma) [µM] | TGI (M14 melanoma) | GI50 (MDA-MB-435) [µM] | TGI (MDA-MB-435) [µM] | GI50 (OVCAR-8 ovarian) [µM] | TGI (OVCAR-8 ovarian) | GI50 (MDA-MB-231 breast) [µM] | TGI (MDA-MB-231 breast) [µM] | GI50 (OVCAR-4 ovarian) [µM] | TGI (OVCAR-4 ovarian)
1 | N=c1ccn(O)cc1/C=C1/C(=O)Nc2ccccc21 | > 100 | > 100 µM | > 100 | > 100 µM | > 100 | > 100 µM | > 100 | > 100 | > 100 | > 100 | > 100 | > 100 µM | > 100 | > 100 | > 100 | > 100 µM | > 100 | > 100 | > 100 | > 100 µM
2 | O=C1C=CC(=Nc2cc(Br)c(O)c(Br)c2)C=C1 | 16.5 | 43.8 µM | 17.8 | 99.1 µM | 24.6 | > 100 µM | 12.4 | 41.4 | 23 | 75.2 | 23.9 | > 100 µM | 18.9 | > 100 | 14.9 | > 100 µM | 31.5 | > 100 | 43 | > 100 µM
3 | CC1CCCC(C(O)CC2CC(=O)NC(=O)C2)C1O (centres undefined) |  | > 100 µM |  | > 100 µM |  | > 100 µM |  | > 100 |  | > 100 |  | > 100 µM |  | > 100 |  | > 100 µM |  | > 100 |  | > 100 µM
4 | [N-]=[N+]=NCCCCCC(=O)OC(C(=O)c1ccccc1)c1cccc(OCC(=O)NCCOCCOCCNC(=O)CCCC[C@@H]2SC[C@@H]3NC(=O)N[C@@H]32)c1 (some centres undefined) | > 100 | > 100 µM | > 100 | > 100 µM | > 100 | > 100 µM | 60.7 | > 100 | > 100 | > 100 | > 100 | > 100 µM | 50.6 | > 100 | > 100 | > 100 µM | 44 | > 100 | > 100 | > 100 µM
5 | Cc1cc(N2CCOCC2)nc(N[C@@H]2CCC[C@H](Nc3ccnc4cc(Cl)ccc34)C2)n1 | 1.4 | 3.54 µM | 2.1 | 4.4 µM | 1.59 | 4.44 µM | 1.68 | 3.71 | 2.07 | 4.02 | 2 | 3.7 µM | 1.86 | 3.39 | 2.97 | 8.49 µM | 1.7 | 3.58 | 2.8 | 10.8 µM
6 | NCCCCCCCn1c2c(c3ccccc3c1=O)C(=O)c1ccccc1-2 | 1.53 | 5.2 µM | 2.48 | 7.07 µM | 2.1 | 6.34 µM | 2.01 | 4.27 | 2.33 | 5.68 | 1.68 | 3.06 µM | 1.98 | 4.06 | 1.69 | 4.82 µM | 1.85 | 3.79 | 2.34 | 6.58 µM
7 | Oc1ccc(-c2nc3ccccc3s2)cc1CN(Cc1ccccn1)Cc1ccccn1 | 0.149 | 14.3 µM | 0.76 | 17.6 µM | 1 | 16 µM | 3.79 | 89.9 | 2.5 | 9.69 | 0.548 | 4.6 µM | 2.24 | 11.3 | 0.52 | 13.4 µM | 1.3 | 13.7 | 0.787 | 12.8 µM
8 | Clc1ccc(-c2c3c(nn2-c2ccccn2)CCc2ccccc2-3)cc1Cl | > 100 | > 100 µM | > 100 | > 100 µM | > 100 | > 100 µM | > 100 | > 100 | > 100 | > 100 | 34 | > 100 µM | > 100 | > 100 | > 100 | > 100 µM | 73.7 | > 100 | 39.8 | > 100 µM
9 | Nc1nc2c(ncn2C2C=CC(CO)C2)c(=O)[nH]1 (centres undefined) |  | > 100 µM |  | > 100 µM |  | > 100 µM |  | > 100 |  | > 100 |  | > 100 µM |  | > 100 |  | > 100 µM |  | > 100 |  | > 100 µM
10 | O=c1cc(-c2cccc3c2Sc2ccccc2S3)oc(N2CCOCC2)c1 | 8.68 | 24.3 µM | 8.94 | 21.7 µM | 7.76 | 24.2 µM | 3.69 | 18.2 | 5.71 | 19.3 | 11.1 | 24.3 µM | 3.54 | 13.5 | 12.9 | 45.7 µM | 11.8 | 29.5 | 11.2 | 31.9 µM
11 | COc1cccc(NC(=O)c2sc3nc(C)c(C(O)c4ccccc4)cc3c2N)c1 (centres undefined) | 0.0924 | 12.4 µM | 0.289 | 22.3 µM | 1.05 | 30.9 µM | 0.737 | 28.4 | 0.96 | 29.7 | 0.199 | 17.4 µM | 0.0251 | 0.0751 | 0.469 | > 66.7 µM | 0.345 | 33.5 | 0.811 | 32.7 µM
12 | CN(Cc1ccccc1)c1ccc(CO)c(Cl)c1 | 25.3 | > 100 µM | 4.55 | > 90.8 µM | 47.2 | > 100 µM | 0.857 | 5.45 | 8.78 | 49.2 | 29 | > 100 µM | 17.6 | 59.2 | 20.7 | > 100 µM | 34.1 | > 100 | 2.54 | 43.6 µM
13 | CCC/C(=N\NC(=S)N1CC2CCC(CC2)C1)c1ccccn1 |  | 0.716 µM and 2.91 µM | 0.142 | 0.627 µM and 1.38 µM | 0.332 | 8.33 µM and 2.6 µM |  | 0.233 | 1.02 |  | 0.0142 | 0.598 µM and 0.207 µM |  | 3.24 |  | 2.82 µM and 2.1 µM |  | 2.75 | 0.119 | 0.897 µM and 0.702 µM
